# According to US10568854B2, “Compositions and methods for treating kabuki syndrome and related disorders” (THE JOHNS HOPKINS UNIVERSITY, priority 2014, dated 2020):
# Entries after “also recorded” stand apart in the source; their conditions may differ.
# Assays:
# H3K4me3 in the GCL = test: Immunofluorescence of H3K4me3 in dentate gyrus GCL (AR-42 treated mice); format: in vivo, mouse
# Source text: Animals: Kmt2d^+/βGeo mice, also named Mll2Gt^(RRt024)Byg, were acquired from Bay Genomics (University of California). All experimental mice were on a mixed C57BL/6J and 129/SvEv background. Expected Mendelian ratios were observed when heterozygous animals were bred to wild-type. In heterozygous crosses, however, there was uniform embryonic lethality of homozygotes by ED12, the earliest developmental stage assayed. For treatment with AR-42 mice were orally gavaged daily with drug (Selleck Chemicals, Houston, Tex.) solubilized in vehicle (0.5% methylcellulose, 0.1% Tween-80, water) or with vehicle alone. Drug delivery information was kindly provided by Drs. […] For quantification of DCX positive cells, doses of 0, 5, 10 and 25 mg/kg/day were used. […] Maxillary protrusion was evaluated by ten investigators blinded to genotype and they were asked to rate maxillary protrusion on radiographs as either large (2) or small (1). […]
# Confocal microscopy: Z-stack images of slides were taken at either 10× using Zeiss Axiovert 200 with 510-Meta confocal module (Carl Zeiss, Jena, GER) or 25× using Zeiss AxioExaminer with 710NLO-Meta multiphoton (Carl Zeiss, Jena, GER). From 10× pictures, the GCL was highlighted and fluorescent intensities for both DAPI and H3K4me3 were measured at the midpoint of the entire z-stack (Zen software, Carl Zeiss, Jena, GER) with the value for Kmt2d^+/+ animals set equal to one. […]
# [1] = tested on: DCX positive cells in the GCL; test: DCX (doublecortin) expression in the GCL, neurogenesis (AR-42 treated mice); format: in vivo, mouse
# Source text: Animals: Kmt2d^+/βGeo mice, also named Mll2Gt^(RRt024)Byg, were acquired from Bay Genomics (University of California). All experimental mice were on a mixed C57BL/6J and 129/SvEv background. Expected Mendelian ratios were observed when heterozygous animals were bred to wild-type. In heterozygous crosses, however, there was uniform embryonic lethality of homozygotes by ED12, the earliest developmental stage assayed. For treatment with AR-42 mice were orally gavaged daily with drug (Selleck Chemicals, Houston, Tex.) solubilized in vehicle (0.5% methylcellulose, 0.1% Tween-80, water) or with vehicle alone. Drug delivery information was kindly provided by Drs. Chen and Kulp from Ohio State University (Huang et al. (2011) Mol. Pharmacol. 79:197-20619). Drug was administered for 14 days and mice were sacrificed on day 15. Morris water maze testing was initiated at day 7 and a dose of 10 mg/kg/day was used for these studies. For quantification of DCX positive cells, doses of 0, 5, 10 and 25 mg/kg/day were used. Genotyping was performed using primers B-GeoF-([…]; SEQ ID NO: 1) and B-GeoR-([…]; SEQ ID NO: 2) that are specific for the targeted allele and TcrdF-([…]; SEQ ID NO: 3) and TcrdR-([…]; SEQ ID NO: 4) that control for sufficient DNA concentration. Real-time PCR using the same primers allows discrimination between the heterozygous and homozygous state for the targeted allele. Maxillary protrusion was evaluated by ten investigators blinded to genotype and they were asked to rate maxillary protrusion on radiographs as either large (2) or small (1). […] All experiments were performed using mouse protocols approved by the Animal Care and Use Committee of Johns Hopkins University School of Medicine. The mouse protocols used for this study are in accordance with the guidelines used by the NIH for mouse care and handling.
# Immunofluorescence: Every 6th brain section was selected and then blocked with 5% Bovine Serum Albumin (BSA) at room temperature followed by incubation with primary antibodies overnight at 4° C. Secondary antibodies were then applied for 1 hour at room temperature, after which sections were mounted onto microscope slides with Vectamount with DAPI (Vector Laboratories, Burlingame, Calif.). Primary antibodies included Doublecortin (DCX) (SC-8066, Santa Cruz Biotechnology, Dallas, Tex., 1:200 goat), trimethylated H3K4 (9727L, Cell Signaling Technology, Beverly, Mass., 1:500 rabbit), and Kmt2d H-300 (SC-292359, Santa Cruz Biotechnology, Dallas, Tex., 1:500 rabbit). Non-specific binding was not observed when sections were sequentially exposed to serum (or IgG when appropriate) from the same species as the primary antibody for each experiment (i.e. rabbit for KMT2D and H3K4me3 and goat for doublecortin), followed by the secondary antibody used for KMT2D and H3K4me3 (anti-rabbit) or doublecortin (anti-goat, FIG. 27).
# GCL and doublecortin area: The area of both the GCL and DCX+ cells was measured using the NS elements 2.0 software (Nikon, Tokyo, JPN). Normalized DCX area was calculated by measuring the DCX+ area of the GCL and setting the baseline (Kmt2d^+/+) fraction to 1. A Student t-test with significance value set at P<0.05 was used for comparison of DCX+ area referenced to GCL area between genotypes and treatment arms.
structure (smiles),measurement,setting,value
"CC(C)[C@H](C(=O)Nc1ccc(C(=O)NO)cc1)c1ccccc1 [AR-42, (S)—N-hydroxy-4-(3-methyl-2-phenylbutanamido)benzamide]",H3K4me3 in the GCL,"H3K4me3 in the GCL; 25 mg/kg/day, oral gavage, two weeks",increased H3K4 trimethylation; also recorded: increased H3K4me3
same,H3K4me3 in the GCL,"H3K4me3 in the GCL; 5 and 10 mg/kg/day, both genotypes",dose-dependent increase in H3K4me3
same,DCX expression in the GCL,"[1]; 10 mg/kg/day, older mice (5-6 months), Kmt2d^+/βGeo",improved
same,DCX expression in the GCL,"[1]; 25 mg/kg/day, Kmt2d^+/+ animals",reduced DCX expression
same,DCX expression in the GCL,"[1]; 25 mg/kg/day, Kmt2d^+/βGeo mice",did not improve DCX expression
same,DCX expression in the GCL,"[1]; 25 mg/kg/day, young (1-2 month-old) and old (5-6 month-old), both genotypes",decreased DCX expression
same,neurogenesis (normalized DCX expression),"[1]; 1-2 month old Kmt2d^+/βGeo mice, doses 0, 5, 10 mg/kg/day",dose-dependent increase in neurogenesis
same,DCX expression in the GCL,"[1]; 5 and 10 mg/kg/day, Kmt2d^+/+ or Kmt2d^+/βGeo, both age groups",preservation or restoration of DCX expression
